Measured values: a melting point compilation (Tetko et al.; mined from patent text by program, amines drawn as free bases though some values may be those of a salt)

melting point [°C]	Structure (SMILES)
95 to 96	O=C(CCN1CCCCC1)Nc1cccc([N+](=O)[O-])c1
148 to 149	CCOC(=O)[C@H](CC(C)C)NC(=O)C[C@@H]1CN(CC(C)(C)CO)c2ccc(Cl)cc2[C@@H](c2cccc(OC)c2OC)O1
121 to 122	CCCCc1nn(CCC)c(C(=O)O)c1Cc1ccc(C2(C(=O)O)CC=CC2)s1
184 to 186	O=C(O)COc1cc2c(c(Cl)c1Cl)C(=O)C(c1ccccc1)(C1CCCC1)C2 (centres undefined)
69 to 70	O=C(Sc1ccccn1)c1ccc(Br)cc1
112 to 114	CC(C)(C)c1cc(SCCCC(=O)O)cc(C(C)(C)C)c1O
223	NS(=O)(=O)c1cc(F)c(C(F)(F)F)cc1NC(=O)c1ccccc1
116	Cc1ccc(S(=O)(=O)N2CCCC2c2cccc(F)c2)cc1 (racemic)
260 to 261	O=C1Nc2ccccc2Sc2ncccc21
159 to 161	Nc1cc(CO)cc(S(N)(=O)=O)c1Cc1ccccc1
246 to 248	NC(=O)CN1C(=O)[C@@H](NC(=O)c2ccccc2)[C@H](c2ccccc2)Sc2ccccc21 (relative stereo)
203 to 205	Cc1nc(-n2cc(-c3ccc(F)cc3)nn2)sc1C(=O)NCc1ccccc1
194	NC(=O)NC[C@@H]1CCCc2cc(S(=O)(=O)c3cccc(F)c3)cc(F)c21
142 to 144	Cn1c(C(F)(F)F)cc(=O)n(-c2cc(OCC#CCOc3ccccc3)c(Cl)cc2F)c1=O
191 to 193	COc1cccc(Nc2ncc3cc4ccccc4n3n2)c1
94 to 96	Nc1ncc(Br)cc1Cl
261 to 263	O=c1oc2ccc(O)cc2c(O)c1-c1ccccc1
230 to 231	CCNCC1CCN(c2c(F)cc3c(=O)c(C(=O)O)cn(C(C)C)c3c2F)C1 (centres undefined)
50 to 51	Cc1ccc(CCCC(=O)O)cc1C
153 to 155	O=C(O)C=CC(=O)c1ccco1
> 300	CC(=O)NCc1cc(Br)cc2[nH]c(=O)c(=O)[nH]c12
287 to 288	Cc1ccsc1C=Cc1nccn1C
143 to 145	CCCCC(CCCC)C(=O)O[C@H]1C[C@H](O)C=C2C=C[C@H](C)[C@H](CC[C@@H]3C[C@@H](O)CC(=O)O3)[C@H]21
109 to 112	CN1C(=O)CC[C@]2(C)c3ccc(Sc4ccccc4)cc3CC[C@@H]12
221 to 223	CC(Cc1cc(I)c(Oc2ccc(O)cc2)c(I)c1)(NC=O)C(=O)O (centres undefined)
104 to 105	COC(=O)CC(C#Cc1cccc(-c2nnc(C)o2)c1)c1ccc(OC)c(OC2CCCC2)c1 (racemic)
103 to 107	CCc1nc2c(N3CCOCC3)ncn(CC)c-2n1

melting point [°C]	Structure (SMILES)
246 to 248	CC(C)(C)c1ccc(C(=O)Nc2cn3c4c(ccc3n2)OCC4)cn1
136	CCN(C(=O)n1nnc2cc(C)c(C)cc21)c1ccccc1
143 to 157	CC(C)c1cccc(-c2nscc2C(=O)O)c1
295 to 296	CCn1cc(C(=O)c2sc(NC(=O)c3ccncc3)nc2-c2ccco2)ccc1=O
183 to 185	Nc1scc2c1C(=O)c1c(Cl)cccc1-2
218 to 219	O=C(Nc1ccc2cc(CN3CCCCC3)ccc2c1)c1ccc(-c2ccc(F)cc2)nc1
198 to 199	CCCc1ccccc1OCCCOc1ccc2c(=O)cc(C(=O)O)oc2c1CC
181 to 182	CN1CCN(Cc2cc(-c3ccccc3)c3c(n2)OCCN(Cc2cc(C(F)(F)F)cc(C(F)(F)F)c2)C3=O)CC1
245 to 247	Cc1c(Cl)cccc1NS(=O)(=O)c1cc(S(=O)(=O)Nc2cccc(Cl)c2C)c2ccccc2c1O
233 to 234	COc1ccc(-n2nc(C(=O)O)c3c2CCCC3)cc1
225 to 227	CCNc1nnc2ccc(-c3cccc(N(C)C(C)=O)c3)nn12
201 to 203	COc1cc(C(=O)N(C(C)C)C2CCCCC2)ccc1Cn1c(C)nc2ncccc21
126 to 128	COc1ccc(C(=O)NCCCN2CCN(C(c3ccccc3)c3ccccc3)CC2)cc1
129 to 130	C[C@]1(CN2CCN(c3ccc(OC(F)(F)F)cc3)CC2)Cn2cc([N+](=O)[O-])nc2O1
167 to 168	O=C(O)c1ccccc1Oc1ccc(C(F)(F)F)cc1NS(=O)(=O)c1ccc(Br)cc1
66 to 68	O=C(c1ccccc1)c1cncc(Br)c1
141 to 142	CNc1c(OC)cc(C(O)CS(C)(=O)=O)cc1OC (centres undefined)
245 to 246	COc1ccc(CNC(=O)c2cc3c(=O)n(Cc4ccc(C(=O)O)cc4)cnc3cn2)cc1
289 to 290	COc1ccc2nc(-c3csc4ccccc34)[nH]c(=O)c2c1
172 to 175	CC(C)NS(=O)(=O)c1cc(-c2ncnc(C(F)F)c2Cl)c(F)cc1Cl
85 to 87	CCOc1cc2ncc(C#N)c(Nc3ccc(OCc4ccccc4)c(Cl)c3)c2cc1NC(=O)CC(CN1CCCC1)N1CCCC1 (centres undefined)
116 to 117	Cc1oc(-c2ccccc2)nc1COc1ccc(/C=C/CO)cn1
63	COC1(c2cc(F)cc(Sc3ccc(C(=O)C(F)(F)F)cc3)c2)CCOCC1
142 to 143	COCC1CN(c2ccc(C3CCC(O)CC3)cn2)C(=O)O1 (racemic)
65 to 68	COC(=O)c1ccc2c(Br)cccc2c1
52	O=C(CC1(C=NO)OCCO1)OCc1ccccc1

Continued, molecule first:

Structure (SMILES)	melting point [°C]
COc1ccc2c(n1)NC(C)(C)C(=O)N2	194 to 195
Cc1cc(S(=O)(=O)c2ccc([N+](=O)[O-])cc2)cc(Br)n1	154 to 156
ON=C(c1cccc2nc(N[C@@H]3CCc4ccccc43)ccc12)C1CC1	151
CCC(C(=O)N(C)C)n1cc(C)c(-c2ccccc2)n1 (centres undefined)	86 to 88
O=C(CCCCCC(=O)NCCc1c[nH]c2ccccc12)NO	140 to 142
O=C(/C=C/c1ccc(C(F)(F)F)cc1Br)Nc1ccc2[nH]ccc2c1	205 to 207
CCOC(=O)c1c(OCC)cc(C=O)cc1OCC	117 to 119
CC(C)C1CCC(C(=O)N[C@H](Cc2ccccc2)C(=O)O)CC1 (some centres undefined)	129 to 130
c1ccc(C(Cc2nc(COc3ccc(CCCn4ccnc4)cc3)co2)c2ccccc2)cc1	79 to 80
CC(=CC(=O)O)c1cccc(-c2cc3c(cc2C)C(C)(C)CCC3(C)C)c1	89 to 90
ClCCN1C2CCC1CC(c1ccc3ccccc3c1)C2 (centres undefined)	84 to 88
O=C(NCc1ccc(Cl)cc1)c1cn(CCO)c2sc(CCCO)cc2c1=O	174 to 178
COc1ccc(-c2c(C)ncc(C#N)c2Nc2cccc3[nH]ccc23)cc1OC	182 to 183
CC(/C=C/c1cscc1-c1ccc2c(c1)C(C)(C)CCC2(C)C)=C\C(=O)O	192 to 193
CC(=O)NCc1ccc(C#Cc2ccc3c(c2)C(C)(C)CCC3(C)C)cc1	220 to 223
CC(C)Oc1cccc(NC(=O)NCc2c(-c3ccccc3)c3cc(Cl)ccc3n2C)c1	218 to 220
COCOc1ccc(-n2cc(C(=O)O)c(=O)cc2-c2ccc(N(C)C)cc2)cc1	150 to 152
N#Cc1ccc(C2CCN(Cc3ccccc3)C2)cc1 (centres undefined)	78 to 79
OC1CSC(Oc2cnc(-c3ccc(F)nc3)c(F)c2)C(O)C1O (centres undefined)	184
CC(C)(C)c1cc(C=O)c(O)c(S(=O)(=O)CCl)c1	128 to 129
CC(CN1CC=C(c2cccs2)CC1)N(C(=O)C1CC=CCC1)c1ccccn1 (centres undefined)	92 to 96
CCOC1=C(C#N)S(=O)(=O)N=C1N	236 to 238
CCOC(=O)N1CC[C@@H](N2C(=O)c3ccccc3C2=O)[C@H](O)C1 (relative stereo)	128

Structure (SMILES)	melting point [°C]
OC(CNC(=S)NCc1ccc(Cl)cc1)(Cn1cncn1)c1ccc(Cl)cc1Cl (centres undefined)	209 to 210
CN(C(=O)c1ccc(C(=O)C(C)(C)C)cc1)C(=O)c1ccc(C(=O)C(C)(C)C)cc1	122
CC1COCc2nc3c(N)nc4cc(O)ccc4c3n21 (centres undefined)	> 250
Cc1ccccc1C(=NC(=Nc1ccccc1)C1(C)CCCCC1)Nc1ccc(F)cc1	210 to 211
O=C(O)c1ccnc(-c2ccc3c(c2)C(c2ccc(Cl)cc2Cl)CC3)c1 (centres undefined)	205 to 206
COc1cc(CN2CCN(C(=S)C3(C)CCc4c(C)c(O)c(C)c(C)c4O3)CC2)cc(OC)c1OC (centres undefined)	82
COc1ccc(C(=O)CCCCCl)cc1S(N)(=O)=O	135 to 136
Cc1ccc(S(=O)(=O)OC[C@H](O)c2ccc(OCc3ccccc3)cc2)cc1	91 to 92
COc1ccc(CCc2ccc(NC(=O)C(=O)C3=C(O)c4ccccc4SC3)cc2)cc1OC	184 to 185
O=C(OCC12CCCN(CCC1)C2)c1c[nH]c2ccccc12	207 to 209
COc1ccc(-c2noc(C(F)F)c2-c2ccc(S(N)(=O)=O)cc2)cc1	182 to 183
CN(Cc1cc2c3c(c1)c(=O)c(C(=O)NCc1ccc(F)cc1)cn3CC(=O)N2C)C[C@@H](O)c1nccs1	156 to 158
C=CCOc1cccc(-n2cnc(-c3nc(CC)no3)c2)c1	73 to 74
CC(=O)OC(CCl)c1cccnc1S(N)(=O)=O (centres undefined)	146 to 147
O=C1Nc2ccccc2C12COc1cc3nccnc3cc12 (centres undefined)	206 to 207
COc1cc(C(=O)O)cc2ccc(-c3ccc4c(c3)C(C)(C)CCC4(C)C)cc12	242
O=C(CC(Cc1cccc2ccccc12)C(=O)O)NCCc1c[nH]c2ccccc12 (centres undefined)	73 to 75
COn1cc(-c2ccccc2)c(=O)c(-c2ccccc2)c1	165
N#CC(=Cc1ccc(O)c(O)c1)C(=O)NCCCNC(=O)C(C#N)=Cc1ccc(O)c(O)c1	274
CCOP(=O)(NCc1cccc(-c2nc(=O)c3ccccc3s2)n1)OCC	135 to 136
O=C(c1ccccc1O)N1CC2CCC(C1)O2	155 to 157
COc1cccc(Cl)c1CC(=O)O	164 to 165
CCn1c(=O)c2c(N)n[nH]c2n(CC)c1=O	246 to 248
